The values below come from patent US4650791A, “Certain 3-alkoxy-2-cyclic-imido-propyl-phosphate-ethyl-cyclic ammonium hydroxide inner salts which inhibit activities of platelet activating factor” (Takedo Chemical Industries, Ltd., priority 1984, dated 1987).

The test system of experiment [1] is PAF-induced platelet aggregation (washed PRP). Nature of the experiment: Activity to inhibit PAF in platelet aggregation (washed PRP). Type of experiment: cell-based. The note with it: Oryctolagus cuniculus, male rabbit, compound 3×10^-5 M, PAF 3×10^-5 M, 37° C., read-out: inhibition rate relative to the maximum transmission (maximum aggregation) of control PRP by PAF. How it is done:
Activity to inhibit PAF in platelet aggregation
Using an injection syringe containing a 3.15% solution of citric acid (in a ratio of 1 part per 9 parts of blood) as an anticoagulant, the blood was directly collected from a male rabbit. Then, at room temperature, the blood was centrifuged at 1,000 r.p.m. for 10 minutes to harvest a platelet rich plasm (PRP). This PRP was further centrifuged at 1,400 r.p.m. for 15 minutes to give platelet pellets. The pellets were suspended in Ca^++ -free Tyrode solution (containing 0.25% of gelatin) to give a washed PRP. This washed PRP (250 μl) was stirred at 37° C. for 2 minutes, then 25 μl of a 0.2 to 0.5 mM Ca^++ solution was added, and the mixture was further stirred for 30 seconds. Then, the compound obtained in Example 5 was added to a concentration of 3×10^-5 M. After stirring the mixture for 2 minutes, 3×10^-5 M of PAF was added. The degree of platelet aggregation was determined with a platelet aggregometer (Rika Denki). The activity of the test drug was estimated from the inhibition rate relative to the maximum transmission (maximum aggregation) of control PRP by PAF. The inhibition rate thus found was 70%.

The test system of experiment [2] is PAF-induced platelet aggregation (PRP). Put plainly: Activity on inhibiting platelet aggregation (PRP, PAF-induced). Type of experiment: cell-based. The note with it: male rabbit, PAF 1×10^-8 M, 37° C. As for the experimental part:
Activity on inhibiting platelet aggregation
Using an injection syringe containing 3.15% citric acid (in a ratio of 1 part per 9 parts of blood) as an anticoagulant, the blood was directly collected from a male rabbit. Then, at room temperature, the blood was centrifuged at 800 r.p.m. for 10 minutes to harvest a platelet rich plasma (PRP). The remaining blood was further centrifuged at 3,000 r.p.m. for 10 minutes to separate a platelet poor plasma (PPP) as a supernatant. The PRP was diluted with the PPP to adjust the number of platelets to about 0.5 million (5×10^5) per μl. This PRP (250 μl) was stirred at 37° C. for 2 minutes, and the test compound was added to the PRP. After stirring the mixture for 2 minutes, 1×10^-8 M of PAF was added to the mixture. The degree of platelet aggregation was determined with a platelet aggregometer (Rika Denki). The aggregation inhibitory activity of the test compound was estimated from the inhibition rate relative to the maximum transmission (maximum aggregation) of control PRP by PAF.

As for `CCCCCCCCCCCCCCCCCCOCC(COP(=O)([O-])OCC[n+]1ccccc1)N1C(=O)c2ccccc2C1=O` (centres unmarked) [Example 5, 3-Octadecyloxy-2-phthalimidopropyl 2-pyridinioethyl phosphate], the inhibition at 30 µM in experiment [1] worked out at 70%.

As to `CCCCCCCCCCCCCCCCCCOCC(COP(=O)([O-])OCC[n+]1ccsc1)N1C(=O)CCC1=O` (centres unmarked) [Example 12, 3-Octadecyloxy-2-succinimidopropyl 2-thiazolioethyl phosphate], the “Inhibition rate (%)” value in experiment [2] (test compound 3 × 10^-5 (M)) is given as 100%; in experiment [2] (test compound 3 × 10^-6 (M)), 32%. On to `CCCCCCCCCCCCCCCCCCOCC(COP(=O)([O-])OCC[n+]1ccsc1)N1C(=O)c2ccccc2C1=O` (centres unmarked) [Example 6, 3-Octadecyloxy-2-phthalimidopropyl 2-thiazolioethyl phosphate], for which the figures for the “Inhibition rate (%)” value in experiment [2] (test compound 3 × 10^-5 (M)) and in experiment [2] (test compound 3 × 10^-6 (M)) were 100% and 96%, respectively.
